A value given as a limit tells only on which side of the number the result lay.

For this assay, the target named is T1, human CXCR6 (Homo sapiens, UniProt O00574).
T1 construct: expressed in transfected cells
T1 sequence (O00574 whole entry): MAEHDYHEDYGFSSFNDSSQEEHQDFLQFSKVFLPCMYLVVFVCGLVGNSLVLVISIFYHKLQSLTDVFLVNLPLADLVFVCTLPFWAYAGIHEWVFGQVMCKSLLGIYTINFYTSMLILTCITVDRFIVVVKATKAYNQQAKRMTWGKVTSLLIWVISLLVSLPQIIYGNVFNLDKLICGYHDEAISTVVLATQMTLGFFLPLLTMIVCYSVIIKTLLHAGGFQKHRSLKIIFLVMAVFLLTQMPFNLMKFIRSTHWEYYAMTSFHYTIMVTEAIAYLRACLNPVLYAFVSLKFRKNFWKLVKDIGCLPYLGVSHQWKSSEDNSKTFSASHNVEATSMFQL
In words: Radioligand Binding Assay (125I-CXCL16 displacement). The following applies: L1.2 cells stably transfected with human CXCR6 cDNA, 0.1 nM 125I-CXCL16, 4° C., three-hour incubation; read-out: Potency (IC50). In outline:
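L1.2 cells stably expressing human CXCR6 incubated 3 h at 4 °C in HBSS/0.1% BSA with 0.1 nM 125I-CXCL16 and graded compound concentrations. Bound radioactivity collected by filtration and counted; IC50 from 3-parameter nonlinear regression.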
Regarding `COc1cc(NC(=O)C(CO)c2ccccc2)ccc1S(=O)(=O)Nc1cccc(C(F)(F)F)c1` (stereo not drawn) [Example 1.206], the half-maximal inhibitory concentration (IC50) lay in the range of 200 to 750 nM.

`CCOc1cc(NC(=O)[C@@H](O)Cc2ccccc2)ccc1S(=O)(=O)Nc1cccc(OC(F)(F)F)c1` [Example 1.207]: the IC50 was at most 200 nM.

For `CCOc1cc(NC(=O)[C@@H](CO)c2ccccc2)ccc1S(=O)(=O)Nc1ccc(F)c(OC(F)(F)F)c1` [Example 1.208], the IC50 was at most 200 nM.

Take `CCOc1cc(NC(=O)[C@@H](O)C(C)C)ccc1S(=O)(=O)Nc1ccc(F)c(OC(F)(F)F)c1` [Example 1.209]: the IC50 was at most 200 nM.

Consider `CCOc1cc(NS(=O)(=O)c2ccc(NC(=O)[C@@H](O)C(C)C)cc2OCC)ccc1Cl` [Example 1.210], for which the half-inhibitory concentration (IC50) was 200 to 750 nM.

For `CCOc1cc(NC(=O)[C@@H](O)C(C)C)ccc1S(=O)(=O)Nc1ccc(F)c(C2CC2)c1` [Example 1.211], the IC50 is at most 200 nM.

For `CCOc1cc(NC(C)=O)ccc1S(=O)(=O)Nc1cccc(C(F)(F)F)c1` [Example 1.212], the IC50 lay in the range of 2000 to 20000 nM.

Regarding `CCOc1cc(NC(=O)[C@@H](CO)C(C)C)ccc1S(=O)(=O)Nc1ccc(C)c(F)c1` [Example 1.213], the half-maximal inhibitory concentration (IC50) was in the range of 200 to 750 nM.

With `COc1cc(NC(=O)CC2CCNC2)ccc1S(=O)(=O)Nc1cccc(C(F)(F)F)c1` (stereo not drawn) [Example 1.214], the IC50 is 2000 to 20000 nM.

As for `CCOc1cc(NC(=O)C2CCOCC2(C)C)ccc1S(=O)(=O)Nc1cccc(OC(F)(F)F)c1` (stereo not drawn) [Example 1.215], the IC50 was 200 to 750 nM.

Consider `CCOc1cc(NC(=O)[C@@H](O)C(C)C)ccc1S(=O)(=O)Nc1cccc(Cl)c1OC` [Example 1.216], for which the half-inhibitory concentration (IC50) is 2000 to 20000 nM.

In the case of `CCOc1cc(NC(=O)C(C(=O)O)C(C)C)ccc1S(=O)(=O)Nc1cccc(OC(F)(F)F)c1` (stereo not drawn) [Example 1.217], the IC50 was at most 200 nM.

On to `CCOc1cc(NC(=O)C(C(=O)O)C2CCC2)ccc1S(=O)(=O)Nc1cccc(OC(F)(F)F)c1` (stereo not drawn) [Example 1.218], for which the IC50 is at most 200 nM.

On to `CCOc1cc(NC(=O)[C@@H](O)c2ccccc2)ccc1S(=O)(=O)Nc1ccc(F)c(OC(F)(F)F)c1` [Example 1.220], for which the IC50 is at most 200 nM.

For the molecule `CCOc1cc(NC(=O)[C@@H](CO)c2ccccc2)ccc1S(=O)(=O)Nc1cccc(Cl)c1C` [Example 1.221], the IC50 was in the range of 2000 to 20000 nM.

Turning to `CCOc1cc(NC(=O)C(O)C2CCC2)ccc1S(=O)(=O)Nc1cccc(OC(F)(F)F)c1` (stereo not drawn) [Example 1.222], the half-inhibitory concentration (IC50) is at most 200 nM.

As to `CCOc1cc(NC(=O)[C@@H](O)C(C)C)ccc1S(=O)(=O)Nc1ccc(Cl)c(C)c1` [Example 1.223], the half-maximal inhibitory concentration (IC50) was at most 200 nM.

In the case of `COc1cc(NC(=O)c2ccnn2C)ccc1S(=O)(=O)Nc1ccc(C(F)(F)F)cc1` [Example 1.224], the IC50 was 200 to 750 nM.

Turning to `CCc1cc(NC(=O)c2ccns2)ccc1S(=O)(=O)Nc1cccc(C(F)(F)F)c1` [Example 1.225], the half-inhibitory concentration (IC50) was 200 to 750 nM.

As for `CCOc1cc(NC(=O)[C@H]2CCC=C[C@H]2O)ccc1S(=O)(=O)Nc1cccc(OC(F)(F)F)c1` [Example 1.226], the IC50 lay within 200 to 750 nM.

`CCOc1cc(NC(=O)[C@H]2CC[C@](C)(O)CC2)ccc1S(=O)(=O)Nc1cccc(OC(F)(F)F)c1` [Example 1.227]: the IC50 is 750 to 2000 nM.

`COc1cc(NC(=O)c2ccnn2C)ccc1S(=O)(=O)Nc1ccc(OC(F)(F)F)cc1` [Example 1.228]: the IC50 lay in the range of 200 to 750 nM.

On to `CCOc1cc(NC(=O)C(CC2CC=CCC2)C(=O)O)ccc1S(=O)(=O)Nc1cccc(OC(F)(F)F)c1` (stereo not drawn) [Example 1.229], for which the IC50 is at most 200 nM.

Regarding `CCOc1cc(NC(=O)CC(O)C2CCCOC2)ccc1S(=O)(=O)Nc1cccc(OC(F)(F)F)c1` (stereo not drawn) [Example 1.230], the IC50 lay in the range of 750 to 2000 nM.

Turning to `COc1cc(NC(=O)c2ccnn2C)ccc1S(=O)(=O)Nc1cccc(C(C)(C)C)c1` [Example 1.231], the IC50 lay within 200 to 750 nM.

As to `CCc1cc(NC(=O)c2ccnn2C)ccc1S(=O)(=O)Nc1cccc(C(F)(F)F)c1` [Example 1.232], the IC50 is at most 200 nM.

As for `CCOc1cc(NC(=O)[C@@H](N)c2ccccc2)ccc1S(=O)(=O)Nc1ccc(Cl)c(OC(F)(F)F)c1` [Example 1.234], the IC50 is at most 200 nM.

As usually defined, the IC50 is the concentration at which inhibition is half-maximal.

Values taken from patent US20230339851A1, “CXCR6 SULFONAMIDE COMPOUNDS” (CHEMOCENTRYX, INC., priority 2022, published 2023).
